Holding throughout (type): cell-based
The test system of one experiment is Alternaria alternate. Description: in vitro-Test with Alternaria alternate (microtiter growth inhibition). Conditions: for Efficacy %: alone; for Efficacy: applied alone. As to the method:
(§1) The degree of efficacy expressed in % is denoted: 0% means an efficacy, which corresponds to that of the control, while an efficacy of 100% means that no disease is observed.
(§2) If the actual fungicidal activity exceeds the calculated value, then the activity of the combination is super-additive, i.e. a synergistic effect exists. In this case, the efficacy, which was actually observed, must be greater than the value for the expected efficacy (E), that was calculated from the abovementioned formula.
(§3) Example: In Vitro-Test with Fungal Microorganisms
(§4) Wells of 96-well microtiter plates are filled with 10 μl of a preparation of test compound or compound combination in methanol+emulsifier alkylaryl-polyglycol-ether. Thereafter, the solvent is evaporated in a hood. At the next step, 100 μl of liquid potato dextrose medium is given into each well, that has been amended with an appropriate concentration of spores or mycelium suspension of the test fungus.
(§5) With the aid of a photometer, the extinction in all wells is measured at the wavelength of 620 nm.
(§6) The microtiter plates are incubated at 20° C. and 85% relative humidity. The inhibition of growth is determined again photometrically 3-5 days after the application. Efficacy is calculated in relation to the untreated control, 0% efficacy means fungal growth as high as in untreated control while 100% efficacy means no fungal growth is measured.

Another experiment deals with Cordana musae. Kind of experiment: in vitro-Test with Cordana musae (microtiter growth inhibition). Conditions: single substance. As to the method:
as §1, §2, §3, §4, §5, §6

The subject of another experiment is Diaporthe citri. Kind of experiment: in vitro-Test with Diaporthe citri (microtiter growth inhibition). As to the method:
as §2, §3, §4, §5, §6

The subject of a further experiment is Botrytis cinerea. Kind of experiment: in vitro-Test with Botrytis cinerea (microtiter growth inhibition). Particulars: for Efficacy: applied alone. On the procedure:
as §1, §2, §3, §4, §5, §6

Another experiment has as its system Cercospora beticola. Description: in vitro-Test with Cercospora beticola (microtiter growth inhibition). Particulars: alone. On the procedure: as §1, §2, §3, §4, §5, §6
Experiment [1] deals with Ustilago segetum var. avenae. Description: in vitro-Test with Ustilago segetum var. avenae (microtiter growth inhibition). On the procedure: as §1, §2, §3, §4, §5, §6
The next experiment has as its system Parastagonospora nodorum. Description: in vitro-Test with Parastagonospora nodorum (microtiter growth inhibition). As to the method: as §1, §2, §3, §4, §5, §6
[2] abbreviates: Parastagonospora nodorum, compound alone, read-out: Efficacy %.
The mark [3] stands for this setting: Parastagonospora nodorum, compound alone, 20 ppm, read-out: Efficacy %.

“And” between values parts separate entries of the source, which are not always exact repeats. Identical values can stand only once.

With `CCO[PH](=O)[O-].CCO[PH](=O)[O-].CCO[PH](=O)[O-].[Al+3]` [fosetylaluminium], the Efficacy % came to 8% with Alternaria alternate (4 ppm), 27% in the experiment with Alternaria alternate (20 ppm) and 37% with Alternaria alternate (100 ppm). Moreover, the Efficacy was 0% with Cordana musae (0.8 ppm); 12% with Cordana musae (4 ppm); 0% in the experiment with Cordana musae (20 ppm); 22% with Diaporthe citri (applied alone, 0.8 ppm); 31% in the experiment on Diaporthe citri (applied alone, 4 ppm); 4% in the experiment on Diaporthe citri (applied alone, 20 ppm). Moreover, the Efficacy in the experiment on Diaporthe citri (applied alone, 100 ppm) was determined as 0%.

As for `Cc1ccc(C(F)(F)CNC(=O)c2c(Oc3cccc(C4CC4)c3F)nnc(Cl)c2C)cc1C` [(1-749)], the Efficacy % in the experiment with Botrytis cinerea (single active at 0.004 ppm) is 0%; in the experiment with Botrytis cinerea (single active at 0.020 ppm) it was 0%; in the experiment on Botrytis cinerea (single active at 0.1 ppm), 45%; in the experiment with Botrytis cinerea (single active at 0.5 ppm), 99%.

mancozeb [Compound 5.013]: the Efficacy in the experiment with Alternaria alternate (2 ppm) is 6%; in the experiment with Alternaria alternate (10 ppm) it was 95%; with Diaporthe citri (0.4 ppm) it was 1%; with Diaporthe citri (2 ppm), 45%; in the experiment with Diaporthe citri (10 ppm), 100%; in the experiment on Diaporthe citri (applied alone, 0.080 ppm), 0% and 3%. Also, the Efficacy in the experiment with Diaporthe citri (applied alone, 0.4 ppm) was 0%; with Diaporthe citri (applied alone, 2 ppm), 52% and 53%; in the experiment on Diaporthe citri (applied alone, 10 ppm) it was 100%. For the same molecule, the Efficacy % worked out at 0% with Cercospora beticola (0.4 ppm); 100% with Cercospora beticola (2 ppm); 100% in the experiment with Cercospora beticola (10 ppm); 1% in experiment [1] (single compound, 0.08 ppm); 5% in experiment [1] (single compound, 2 ppm); 100% in experiment [1] (single compound, 10 ppm).

As to `Cn1cc(C(=O)Nc2ccc(F)cc2-c2ccc(Cl)c(Cl)c2)c(C(F)F)n1` [bixafen], the Efficacy % turned out to be 79% in the experiment on Alternaria alternate (0.04 ppm), 81% with Alternaria alternate (0.2 ppm) and 86% with Alternaria alternate (1.0 ppm). Moreover, the Efficacy with Parastagonospora nodorum (0.2 ppm) was 34%; in the experiment with Parastagonospora nodorum (1.0 ppm) it was 41%.

For the molecule `Cc1cc(C)nc(Nc2ccccc2)n1` [(7.005) pyrimethanil], the inhibition of growth at 0.8 ppm in the experiment with Botrytis cinerea (Botrytis cinerea, single active at 0.8 ppm, read-out: Efficacy %) amounted to 78%; in the experiment on Parastagonospora nodorum (setting [2]) it was 99%. Moreover, in the experiment on Parastagonospora nodorum (setting [2]), the inhibition of growth at 4 ppm amounted to 100%. Besides, in the experiment on Parastagonospora nodorum (compound alone, 20 ppm), the Efficacy % stood at 100%.

Take `Cc1ccc(C(F)(F)CNC(=O)c2c(Oc3cccc(C4CC4)c3F)nnc(Cl)c2C)c(C)c1` [Compound 1-655]: the Efficacy % in the experiment with Cercospora beticola (0.004 ppm) came to 0%; in the experiment with Cercospora beticola (0.020 ppm), 0%; in the experiment with Cercospora beticola (0.1 ppm), 0%; with Cercospora beticola (0.5 ppm) it was 7%.

`CCCN(CC)CC1COC2(CCC(C(C)(C)C)CC2)O1` (stereo not drawn) [(1.020) spiroxamine]: the inhibition of growth at 20 ppm in the experiment with Botrytis cinerea (Botrytis cinerea, single active at 20 ppm, read-out: Efficacy %) worked out at 15%. Further, in the experiment with Parastagonospora nodorum (setting [2]), the inhibition of growth at 0.8 ppm is 6% and the inhibition of growth at 4 ppm was determined as 0%. In addition, the inhibition of growth at 20 ppm with Parastagonospora nodorum (setting [3]) was determined as 0%.

In the case of `Cc1ccc(C(F)(F)CNC(=O)c2c(Oc3cccc(C4CC4)c3F)nnc(Cl)c2C)c(C)c1` [(1-655)], the Efficacy % in the experiment with Botrytis cinerea (single active at 0.004 ppm) is on record as 0%; with Botrytis cinerea (single active at 0.020 ppm) it was 0%; in the experiment on Botrytis cinerea (single active at 0.1 ppm), 58%; in the experiment with Botrytis cinerea (single active at 0.5 ppm), 100%.

As for `Cn1cc(C(=O)Nc2ccc(F)cc2-c2ccc(Cl)c(Cl)c2)c(C(F)F)n1` [(2.002) bixafen], the Efficacy % is 9% with Botrytis cinerea (single active at 0.008 ppm); 42% in the experiment with Botrytis cinerea (single active at 0.04 ppm); 55% and 67% in the experiment on Botrytis cinerea (single active at 0.2 ppm); 67% and 73% in the experiment with Botrytis cinerea (single active at 1.0 ppm); 3% in the experiment on Parastagonospora nodorum (compound alone, 0.04 ppm).

Take `CC(O)(Cn1cncn1)c1ccc(Oc2ccc(Cl)cc2)cc1C(F)(F)F` (stereo not drawn) [(1.055) mefentrifluconazole]: the Efficacy % in the experiment with Botrytis cinerea (single active at 0.008 ppm) was 0%; in the experiment with Botrytis cinerea (single active at 0.04 ppm), 9% and 0%; with Botrytis cinerea (single active at 0.2 ppm), 60% and 96%; in the experiment with Botrytis cinerea (single active at 1.0 ppm), 100%; with Parastagonospora nodorum (compound alone, 0.008 ppm) it was 81%; in the experiment on Parastagonospora nodorum (compound alone, 0.04 ppm), 98%. Also, the Efficacy % in the experiment on Parastagonospora nodorum (compound alone, 0.2 ppm) came to 99%; in experiment [1] (compound alone, 0.008 ppm), 34%; in experiment [1] (compound alone, 0.04 ppm), 87%; in experiment [1] (compound alone, 0.2 ppm), 98%; in experiment [1] (compound alone, 1.0 ppm), 100%.

For the molecule `C[C@@H]1CC(C)(C)c2c(F)ccc(NC(=O)c3cn(C)nc3C(F)F)c21` [(2.028) inpyrfluxam], the Efficacy % was 0% in the experiment on Botrytis cinerea (single active at 0.008 ppm); 48% and 55% with Botrytis cinerea (single active at 0.04 ppm); 60% and 66% with Botrytis cinerea (single active at 0.2 ppm); 63% and 91% in the experiment with Botrytis cinerea (single active at 1.0 ppm); 0% with Parastagonospora nodorum (compound alone, 0.008 ppm); 23% in the experiment on Parastagonospora nodorum (compound alone, 0.04 ppm). The Efficacy % in the experiment on Parastagonospora nodorum (compound alone, 0.2 ppm) is recorded as 33%; with Parastagonospora nodorum (compound alone, 1.0 ppm), 33%.

In the case of `Cc1ccc(C(F)(F)CNC(=O)c2c(Oc3cccc(C4CC4)c3F)nnc(Cl)c2C)c(Cl)c1` [(1-746)], the Efficacy % with Botrytis cinerea (single active at 0.004 ppm) was determined as 0%; in the experiment with Botrytis cinerea (single active at 0.020 ppm), 0%; in the experiment on Botrytis cinerea (single active at 0.1 ppm), 38%; in the experiment on Botrytis cinerea (single active at 0.5 ppm), 100%.

On to `N#Cc1sc2c(=O)c3ccccc3c(=O)c=2sc1C#N` [(5.010) dithianon], for which the Efficacy % in the experiment with Botrytis cinerea (single active at 20 ppm) is 100%. In experiment [1] (compound alone, 0.8 ppm, read-out: Efficacy %), the inhibition of growth at 0.8 ppm is 11%. In experiment [1] (compound alone, 20 ppm, read-out: Efficacy %), the inhibition of growth at 20 ppm was determined as 98%.

Regarding `CCCOc1nc2ccc(I)cc2c(=O)n1CCC` [proquinazid], the Efficacy % with Alternaria alternate (0.08 ppm), in the experiment on Alternaria alternate (0.4 ppm), in the experiment on Alternaria alternate (2 ppm) and with Alternaria alternate (10 ppm) was 0% in each case. The Efficacy in the experiment on Botrytis cinerea (0.4 ppm), with Botrytis cinerea (2 ppm), in the experiment with Botrytis cinerea (10 ppm), with Cordana musae (0.080 ppm), in the experiment with Cordana musae (0.4 ppm) and in the experiment on Cordana musae (2 ppm) was 0% in each case. In addition, the Efficacy with Diaporthe citri (applied alone, 0.4 ppm) is 11%; in the experiment with Diaporthe citri (applied alone, 2 ppm), 0%.

Regarding `COc1ccnc(C(=O)N[C@H]2COC(=O)[C@H](Cc3ccccc3)[C@@H](OC(=O)C(C)C)[C@H](C)OC2=O)c1OCOC(=O)C(C)C` [(3.025) fenpicoxamid], the Efficacy % in the experiment with Botrytis cinerea (single active at 0.04 ppm) worked out at 0%; in the experiment on Botrytis cinerea (single active at 0.2 ppm) it was 13%; in the experiment on Botrytis cinerea (single active at 1.0 ppm), 0%; with Botrytis cinerea (single active at 5.0 ppm) it was 34%; in experiment [1] (compound alone, 0.04 ppm), 3%; in experiment [1] (compound alone, 0.2 ppm), 0%. Besides, the Efficacy % in experiment [1] (compound alone, 1.0 ppm) is given as 0%; in experiment [1] (compound alone, 5.0 ppm) it was 0%.

Turning to `O=C1c2ccccc2C(=O)N1SC(Cl)(Cl)Cl` [(5.012) folpet], in the experiment on Botrytis cinerea (Botrytis cinerea, single active at 0.08 ppm, read-out: Efficacy %), the inhibition of growth at 0.08 ppm was found to be 0%. Moreover, in the experiment with Botrytis cinerea (Botrytis cinerea, single active at 0.4 ppm, read-out: Efficacy %), the inhibition of growth at 0.4 ppm amounted to 2%. In addition, the Efficacy % in the experiment on Botrytis cinerea (single active at 0.4 ppm) amounted to 0%. In the experiment on Parastagonospora nodorum (Parastagonospora nodorum, compound alone, 2 ppm, read-out: Efficacy %), the inhibition of growth at 2 ppm amounted to 91%. Besides, the inhibition of growth at 10 ppm with Parastagonospora nodorum (Parastagonospora nodorum, compound alone, 10 ppm, read-out: Efficacy %) was found to be 100%.

propineb: the Efficacy % was 18% and 11% in the experiment with Alternaria alternate (0.8 ppm); 32% and 21% with Alternaria alternate (4 ppm); 66% and 71% in the experiment with Alternaria alternate (20 ppm); 92% with Alternaria alternate (100 ppm); 4% and 6% in experiment [1] (single compound, 0.8 ppm); 100% in experiment [1] (single compound, 20 ppm). In addition, the Efficacy % in experiment [1] (single compound, 100.00 ppm) was 79%. For the same molecule, the Efficacy in the experiment on Alternaria alternate (4 ppm) came to 56%; in the experiment on Alternaria alternate (20 ppm), 73%; in the experiment on Alternaria alternate (100 ppm), 96%; with Cordana musae (0.8 ppm) it was 0%; in the experiment with Diaporthe citri (4 ppm), 23%; with Diaporthe citri (20 ppm), 100%. Moreover, the Efficacy in the experiment with Diaporthe citri (100 ppm) was 97%; in the experiment on Diaporthe citri (applied alone, 0.8 ppm) it was 0%; in the experiment with Diaporthe citri (applied alone, 20 ppm), 98% and 100%; with Diaporthe citri (applied alone, 100 ppm), 100%.

For `O=C1C2CC=CCC2C(=O)N1SC(Cl)(Cl)Cl` (stereo not drawn) [(5.003) captan], the inhibition of growth at 4 ppm with Botrytis cinerea (Botrytis cinerea, single active at 4 ppm, read-out: Efficacy %) came out at 20%; with Parastagonospora nodorum (setting [2]) it was 54%. Besides, the inhibition of growth at 20 ppm in the experiment with Parastagonospora nodorum (setting [3]) was determined as 100%.

Source of the values: patent US20230165252A1, “ACTIVE COMPOUND COMBINATIONS” (Bayer Aktiengesellschaft, priority 2020, published 2023).
